Data published in ChEMBL document CHEMBL1268953, “Discovery of novel 2-aryl-4-benzoyl-imidazoles targeting the colchicines binding site in tubulin as potential anticancer agents” (J Med Chem, 2010).

System: not listed separately
Experiment: Cytotoxicity against human WM164 cells after 48 hrs by sulforhodamine B assay
Format: functional, cell-based
Settings: Homo sapiens, WM164, 48 h

Row | SMILES | IC50
1 | Cc1ccc(-c2ncc(C(=O)c3ccc(F)cc3)n2S(=O)(=O)c2ccccc2)cc1 | 0.107 µM
2 | COc1cc(C(=O)n2ccnc2-c2ccccc2)cc(OC)c1OC | > 10 µM
3 | O=[N+]([O-])c1ccc(-c2nccn2S(=O)(=O)c2ccccc2)cc1 | > 10 µM
4 | COc1cc(C(=O)c2cnc(-c3cc(OC)c(OC)c(OC)c3)n2S(=O)(=O)c2ccccc2)cc(OC)c1OC | > 10 µM
5 | COc1cc(-c2ncc(C(=O)c3ccc(F)cc3)n2S(=O)(=O)c2ccccc2)cc(OC)c1OC | > 10 µM
6 | O=S(=O)(c1ccccc1)n1ccnc1-c1ccc(OCc2ccccc2)cc1 | > 10 µM
7 | COc1cc(C(=O)c2c[nH]c(-c3ccc(F)cc3)n2)cc(OC)c1OC | 0.073 µM
8 | COc1cc(C(=O)c2cnc(-c3ccc(N(C)C)cc3)n2S(=O)(=O)c2ccccc2)cc(OC)c1OC | 0.308 µM
9 | COc1ccc(-c2ncc(C(=O)c3cc(OC)c(OC)c(OC)c3)n2S(=O)(=O)c2ccccc2)cc1OC | 0.139 µM
10 | COc1cc(C(=O)c2c[nH]c(-c3ccc(C)cc3)n2)cc(OC)c1OC | 0.008 µM
11 | Cc1ccc(-c2nc(C(=O)c3ccc(F)cc3)c[nH]2)cc1 | 0.156 µM

System: PC-3
Experiment: cells
Settings: Homo sapiens, PC-3, 48 h
Description: Cytotoxicity against human PC3 cells after 48 hrs by sulforhodamine B assay

Row | SMILES | IC50
12 | Cc1ccc(-c2ncc(C(=O)c3ccc(F)cc3)n2S(=O)(=O)c2ccccc2)cc1 | 0.08 µM
13 | COc1cc(C(=O)n2ccnc2-c2ccccc2)cc(OC)c1OC | > 10 µM
14 | O=[N+]([O-])c1ccc(-c2nccn2S(=O)(=O)c2ccccc2)cc1 | > 10 µM
15 | COc1cc(C(=O)c2cnc(-c3cc(OC)c(OC)c(OC)c3)n2S(=O)(=O)c2ccccc2)cc(OC)c1OC | > 10 µM
16 | COc1cc(-c2ncc(C(=O)c3ccc(F)cc3)n2S(=O)(=O)c2ccccc2)cc(OC)c1OC | > 10 µM
17 | O=S(=O)(c1ccccc1)n1ccnc1-c1ccc(OCc2ccccc2)cc1 | > 10 µM
18 | COc1cc(C(=O)c2c[nH]c(-c3ccc(F)cc3)n2)cc(OC)c1OC | 0.169 µM
19 | COc1cc(C(=O)c2cnc(-c3ccc(N(C)C)cc3)n2S(=O)(=O)c2ccccc2)cc(OC)c1OC | 0.093 µM
20 | COc1ccc(-c2ncc(C(=O)c3cc(OC)c(OC)c(OC)c3)n2S(=O)(=O)c2ccccc2)cc1OC | 0.197 µM
21 | Cc1ccc(-c2nc(C(=O)c3ccc(F)cc3)c[nH]2)cc1 | 0.065 µM

System: A-375
Experiment: Cytotoxicity against human A375 cells after 48 hrs by sulforhodamine B assay
Format: functional, cell-based
Settings: Homo sapiens, A-375, 48 h

Row | SMILES | IC50
22 | COc1cc(C(=O)n2ccnc2-c2ccccc2)cc(OC)c1OC | > 10 µM
23 | O=[N+]([O-])c1ccc(-c2nccn2S(=O)(=O)c2ccccc2)cc1 | > 10 µM
24 | COc1cc(C(=O)c2cnc(-c3cc(OC)c(OC)c(OC)c3)n2S(=O)(=O)c2ccccc2)cc(OC)c1OC | > 10 µM
25 | COc1cc(-c2ncc(C(=O)c3ccc(F)cc3)n2S(=O)(=O)c2ccccc2)cc(OC)c1OC | 3.84 µM
26 | O=S(=O)(c1ccccc1)n1ccnc1-c1ccc(OCc2ccccc2)cc1 | > 10 µM
27 | COc1cc(C(=O)c2c[nH]c(-c3ccc(F)cc3)n2)cc(OC)c1OC | 0.205 µM
28 | COc1cc(C(=O)c2cnc(-c3ccc(N(C)C)cc3)n2S(=O)(=O)c2ccccc2)cc(OC)c1OC | 0.162 µM
29 | COc1ccc(-c2ncc(C(=O)c3cc(OC)c(OC)c(OC)c3)n2S(=O)(=O)c2ccccc2)cc1OC | 0.192 µM
30 | Cc1ccc(-c2nc(C(=O)c3ccc(F)cc3)c[nH]2)cc1 | 0.142 µM

System: DU-145
Experiment: cells
Settings: Homo sapiens, DU-145, 48 h
Description: Cytotoxicity against human DU145 cells after 48 hrs by sulforhodamine B assay

Row | SMILES | IC50
31 | Cc1ccc(-c2ncc(C(=O)c3ccc(F)cc3)n2S(=O)(=O)c2ccccc2)cc1 | 0.08 µM
32 | COc1cc(C(=O)n2ccnc2-c2ccccc2)cc(OC)c1OC | > 10 µM
33 | O=[N+]([O-])c1ccc(-c2nccn2S(=O)(=O)c2ccccc2)cc1 | > 10 µM
34 | COc1cc(C(=O)c2cnc(-c3cc(OC)c(OC)c(OC)c3)n2S(=O)(=O)c2ccccc2)cc(OC)c1OC | > 10 µM
35 | COc1cc(-c2ncc(C(=O)c3ccc(F)cc3)n2S(=O)(=O)c2ccccc2)cc(OC)c1OC | > 10 µM
36 | O=S(=O)(c1ccccc1)n1ccnc1-c1ccc(OCc2ccccc2)cc1 | > 10 µM
37 | COc1cc(C(=O)c2c[nH]c(-c3ccc(F)cc3)n2)cc(OC)c1OC | 0.132 µM
38 | COc1cc(C(=O)c2cnc(-c3ccc(N(C)C)cc3)n2S(=O)(=O)c2ccccc2)cc(OC)c1OC | 0.099 µM
39 | COc1ccc(-c2ncc(C(=O)c3cc(OC)c(OC)c(OC)c3)n2S(=O)(=O)c2ccccc2)cc1OC | 0.144 µM
40 | Cc1ccc(-c2nc(C(=O)c3ccc(F)cc3)c[nH]2)cc1 | 0.078 µM

System: not listed separately
Experiment: Cytotoxicity against mouse B16-F1 cells after 48 hrs by sulforhodamine B assay
Format: functional, cell-based
Settings: Mus musculus, B16-F1, 48 h

Row | SMILES | IC50
41 | Cc1ccc(-c2ncc(C(=O)c3ccc(F)cc3)n2S(=O)(=O)c2ccccc2)cc1 | 0.287 µM
42 | COc1cc(C(=O)n2ccnc2-c2ccccc2)cc(OC)c1OC | > 10 µM
43 | O=[N+]([O-])c1ccc(-c2nccn2S(=O)(=O)c2ccccc2)cc1 | > 10 µM
44 | COc1cc(C(=O)c2cnc(-c3cc(OC)c(OC)c(OC)c3)n2S(=O)(=O)c2ccccc2)cc(OC)c1OC | > 10 µM
45 | COc1cc(-c2ncc(C(=O)c3ccc(F)cc3)n2S(=O)(=O)c2ccccc2)cc(OC)c1OC | > 10 µM
46 | O=S(=O)(c1ccccc1)n1ccnc1-c1ccc(OCc2ccccc2)cc1 | > 10 µM
47 | COc1cc(C(=O)c2c[nH]c(-c3ccc(F)cc3)n2)cc(OC)c1OC | 0.32 µM
48 | COc1cc(C(=O)c2cnc(-c3ccc(N(C)C)cc3)n2S(=O)(=O)c2ccccc2)cc(OC)c1OC | 1.2 µM
49 | COc1ccc(-c2ncc(C(=O)c3cc(OC)c(OC)c(OC)c3)n2S(=O)(=O)c2ccccc2)cc1OC | 0.97 µM
50 | COc1cc(C(=O)c2c[nH]c(-c3ccc(C)cc3)n2)cc(OC)c1OC | 0.046 µM
51 | Cc1ccc(-c2nc(C(=O)c3ccc(F)cc3)c[nH]2)cc1 | 0.222 µM

System: LNCaP
Experiment: Cytotoxicity against human LNCAP cells after 48 hrs by sulforhodamine B assay
Format: functional, cell-based
Settings: not given

Row | SMILES | IC50
52 | Cc1ccc(-c2ncc(C(=O)c3ccc(F)cc3)n2S(=O)(=O)c2ccccc2)cc1 | 0.055 µM
53 | COc1cc(C(=O)n2ccnc2-c2ccccc2)cc(OC)c1OC | > 10 µM
54 | O=[N+]([O-])c1ccc(-c2nccn2S(=O)(=O)c2ccccc2)cc1 | > 10 µM
55 | COc1cc(C(=O)c2cnc(-c3cc(OC)c(OC)c(OC)c3)n2S(=O)(=O)c2ccccc2)cc(OC)c1OC | > 10 µM
56 | COc1cc(-c2ncc(C(=O)c3ccc(F)cc3)n2S(=O)(=O)c2ccccc2)cc(OC)c1OC | > 10 µM
57 | O=S(=O)(c1ccccc1)n1ccnc1-c1ccc(OCc2ccccc2)cc1 | > 10 µM
58 | COc1cc(C(=O)c2c[nH]c(-c3ccc(F)cc3)n2)cc(OC)c1OC | 0.098 µM
59 | COc1cc(C(=O)c2cnc(-c3ccc(N(C)C)cc3)n2S(=O)(=O)c2ccccc2)cc(OC)c1OC | 0.062 µM
60 | COc1ccc(-c2ncc(C(=O)c3cc(OC)c(OC)c(OC)c3)n2S(=O)(=O)c2ccccc2)cc1OC | 0.114 µM
61 | Cc1ccc(-c2nc(C(=O)c3ccc(F)cc3)c[nH]2)cc1 | 0.045 µM

System: PPC-1
Experiment: Cytotoxicity against human PPC1 cells after 48 hrs by sulforhodamine B assay
Format: functional, cell-based
Settings: Homo sapiens, PPC-1, 48 h

Row | SMILES | IC50
62 | Cc1ccc(-c2ncc(C(=O)c3ccc(F)cc3)n2S(=O)(=O)c2ccccc2)cc1 | 0.057 µM
63 | COc1cc(C(=O)n2ccnc2-c2ccccc2)cc(OC)c1OC | > 10 µM
64 | O=[N+]([O-])c1ccc(-c2nccn2S(=O)(=O)c2ccccc2)cc1 | > 10 µM
65 | COc1cc(C(=O)c2cnc(-c3cc(OC)c(OC)c(OC)c3)n2S(=O)(=O)c2ccccc2)cc(OC)c1OC | > 10 µM
66 | COc1cc(-c2ncc(C(=O)c3ccc(F)cc3)n2S(=O)(=O)c2ccccc2)cc(OC)c1OC | > 10 µM
67 | O=S(=O)(c1ccccc1)n1ccnc1-c1ccc(OCc2ccccc2)cc1 | > 10 µM
68 | COc1cc(C(=O)c2c[nH]c(-c3ccc(F)cc3)n2)cc(OC)c1OC | 0.081 µM
69 | Cc1ccc(-c2nc(C(=O)c3ccc(F)cc3)c[nH]2)cc1 | 0.054 µM

Same assay, conditions: ppc-1

Row | SMILES | IC50
70 | COc1cc(C(=O)c2c[nH]c(-c3ccc(C)cc3)n2)cc(OC)c1OC | 0.011 µM
